Values joined by “and” are separate entries in the source; they are usually repeats but may differ in a detail not shown here. Identical values can stand only once. One block for each substance: values may come before it.
Experiments:
MAL^TIR = target: T1, MAL^TIR (Homo sapiens, UniProt P58753); assay: T‐Surf phage library (P8 and P3) selection against MAL^TIR, four rounds, NGS read counts; assay type: binding; settings: for Population: P8_MAL pool: P8 T-Surf phage library, 4th round of selection against MAL TIR, share of NGS reads; for Rank (after): P8_MAL: rank by count after grouping; for Rank (before): P8_MAL: rank by count before grouping; for P8_MAL Rank (after) / P8_MAL Rank (before): P8 library
T1 construct: MAL (residues 79–221); 6xHis; made in house; host or cells: E. coli BL21 (DE3)
Method: T‐Surf libraries were screened against the immobilized TIR domains of two major human TLR adaptor proteins, MAL^TIR and MyD88^TIR, allowing cross‐species selection of TIR‐binding motifs with 190 946 TIR‐derived peptides in a single binding assay (Scheme 1). Enriched phage pools from the fourth round of selection were analyzed using NGS after barcoding the peptide‐coding regions of the phage pools.
Phage display screening was performed by coating two wells of a 96‐well plate (Maxisorp, Thermo Fisher Scientific) with 100 µL of 5 µg mL^−1 TIR domains overnight; then, the coated wells were blocked with 200 µL of blocking buffer (0.2% BSA in PBS) and set aside for 1 h at 4 °C with gentle shaking. Next, 100 µL of the phage library was added to the wells and incubated for 1 h at room temperature (RT; 20 – 22 °C) with gentle shaking. The plate was washed four times with PBS containing 0.5% Tween‐20; the bound phages were eluted by adding 100 µL of 100 mM HCl to each well. The elute was neutralized with 10 µL of 1.0 M Tris‐HCl (pH 11.0). E. coli TG1 cells were grown to the log phase (A600 = ≈0.6), and 1 mL of the culture was incubated with 100 µL of the eluted phages for 30 min at 37 °C, with shaking at 200 rpm. Next, 1 µL of M13KO7 helper phages was added, followed by incubation for 45 min at 37 °C, with shaking. Subsequently, the cells were transferred to 25 mL of 2× yeast extract tryptone/carbenicillin/kanamycin medium and incubated overnight at 37 °C with shaking at 200 rpm. The amplified phages were precipitated with 20% PEG‐8000/2.5 M NaCl to be used for the next round of selection.
The naïve T‐Surf libraries in P8 and P3 and the enriched phage pools after four rounds were barcoded for NGS as previously described.^[ [59] ^] Briefly, 5 µL of the phage pool was used as a template for 20 cycles of a 50 µL PCR reaction using […] each of forward and reverse barcoded primers and PrimeSTAR Max DNA Polymerase. The PCR products were purified using Expin Gel SV (GeneAll). The NGS samples were quantified using qPCR, following the qPCR Quantification Protocol Guide (KAPA Library Quantification kits for Illumina Sequencing Platform), and qualified using the TapeStation High Sensitivity D1000 ScreenTape (Agilent Technologies). The indexed libraries were further sequenced by Macrogen (Seoul, Republic of Korea) using the NovaSeq platform (Illumina) with 100 bp paired‐end reads. The reads were demultiplexed by barcodes and filtered for an average Phred quality score of at least 30, followed by trimming the flanking consensus sequences using Cutadapt (version 2.3). Peptide sequence populations were analyzed according to the read counts.

MyD88^TIR = target: T2, MyD88^TIR (Homo sapiens, UniProt Q99836); assay: T‐Surf phage library (P8 and P3) selection against MyD88^TIR, four rounds, NGS read counts; assay type: binding; settings: for P3_MyD88 Rank (after) / P3_MyD88 Rank (before): P3 library
T2 construct: MyD88 (residues 148–296); 6xHis; made in house; host or cells: E. coli BL21 (DE3)
How it was run: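 P8 and P3 T‐Surf libraries panned against plate-coated TIR domains (5 µg mL^−1), 1 h binding at RT, acid elution and TG1/helper-phage amplification per round. After four rounds, pools were PCR-barcoded and sequenced (NovaSeq, 100 bp paired-end, Phred ≥30); peptides ranked by read counts.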

[1] = 4R selection against MAL, rank after grouping
[2] = 4R selection against MAL, rank before grouping
[3] = P3_MyD88: rank by count after grouping
[4] = P3_MyD88: rank by count before grouping
[5] = 4R selection against MyD88, rank after grouping
[6] = 4R selection against MyD88, rank before grouping
[7] = selection against MyD88 TIR, rank by count after grouping
[8] = selection against MyD88 TIR, rank by count before grouping
[9] = selection against MyD88, rank by count after grouping
[10] = selection against MyD88, rank by count before grouping
[11] = selection against MyD88, rank after grouping
[12] = selection against MyD88, rank before grouping

T2 sequence (Q99836 148-296): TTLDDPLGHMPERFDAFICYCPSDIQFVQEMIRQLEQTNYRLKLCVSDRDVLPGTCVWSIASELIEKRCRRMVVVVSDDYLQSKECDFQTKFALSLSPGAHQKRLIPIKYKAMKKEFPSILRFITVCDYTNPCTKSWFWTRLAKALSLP
T1 sequence (P58753 79-221): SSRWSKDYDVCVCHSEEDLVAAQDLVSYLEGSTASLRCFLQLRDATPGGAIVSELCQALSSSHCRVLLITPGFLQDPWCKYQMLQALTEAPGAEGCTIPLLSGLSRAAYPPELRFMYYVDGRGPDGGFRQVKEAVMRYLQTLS

Population (MAL^TIR): 0.00402% and 0.00278%
Substance: *FYERLVSLILRDTKV

Rank (after) (MAL^TIR): 417
Rank (before) (MAL^TIR): 1934
Substance: ACFWEQRPTVLGKPPM

P3_MAL Rank (after) (MAL^TIR; P3 library, selection against MAL, rank after grouping): 569
P3_MAL Rank (before) (MAL^TIR; P3 library, selection against MAL, rank before grouping): 1783
Substance: AFCIRRLRVKALRFS

Rank (after) (MAL^TIR): 123
Rank (before) (MAL^TIR): 1781
Substance: AFCWAQLKSVLGNPTR

P8_MAL Rank (after) (MAL^TIR; selection against MAL TIR, rank by count after grouping): 267
P8_MAL Rank (before) (MAL^TIR; selection against MAL TIR, rank by count before grouping): 1586
Substance: AFFCAHLRTVLGKPTM

Rank (after) (MAL^TIR): 102
Rank (before) (MAL^TIR): 1724
Substance: AFFCAQLKRVLGNPTM

Population (MAL^TIR): 0.00309%
Substance: AFFCAQLKSVLGNPTM

P8_MAL Rank (after) (MAL^TIR; [1]): 675
P8_MAL Rank (before) (MAL^TIR; [2]): 1585
Substance: AFFCAQLKSVMGNPTI

P8_MAL Rank (after) (MAL^TIR; selection against MAL, rank after grouping): 516
P8_MAL Rank (before) (MAL^TIR; selection against MAL, rank before grouping): 1725
Substance: AFFCAQQKSVLRNPTK

Rank (after) (MAL^TIR): 414
Rank (before) (MAL^TIR): 1587
Substance: AFFCEQLRTVIGKPTI

P8_MAL Rank (after) (MAL^TIR; [1]): 623
P8_MAL Rank (before) (MAL^TIR; [2]): 1589
Substance: AFFCTHLKSVLDNPTM

Rank (after) (MyD88^TIR; [3]): 411
Rank (before) (MyD88^TIR; [4]): 1613
Substance: YRKWGYLRIWDRWRFA

P8_MyD88 Rank (after) (MyD88^TIR; P8 library, selection against MyD88 TIR, rank by count after grouping): 285
P8_MyD88 Rank (before) (MyD88^TIR; P8 library, selection against MyD88 TIR, rank by count before grouping): 543
Substance: YSFLSHLAAAFELHGI

Rank (after) (MyD88^TIR; [3]): 462
Rank (before) (MyD88^TIR; [4]): 1433
Substance: YSFTGQLHLYLIHRGV

P3_MyD88 Rank (after) (MyD88^TIR; [5]): 649
P3_MyD88 Rank (before) (MyD88^TIR; [6]): 1434
Substance: YSFTGQLHRYMVQRGV

Rank (after) (MyD88^TIR; P8_MyD88: rank by NGS read count after grouping): 1025
Rank (before) (MyD88^TIR; P8_MyD88: rank by NGS read count before grouping): 2122
Substance: YSQHDVLWVKNFLSHI

Rank (after) (MyD88^TIR; [3]): 397
Rank (before) (MyD88^TIR; [4]): 1635
Substance: YTALANSGCHTFRDND

P3_MyD88 Rank (after) (MyD88^TIR; [5]): 613
P3_MyD88 Rank (before) (MyD88^TIR; [6]): 1634
Substance: YTALANSGFHTFHDND

P3_MyD88 Rank (after) (MyD88^TIR; [7]): 273
P3_MyD88 Rank (before) (MyD88^TIR; [8]): 1637
Substance: YTALINSGFHTFRDNH

P3_MyD88 Rank (after) (MyD88^TIR; [7]): 253
P3_MyD88 Rank (before) (MyD88^TIR; [8]): 1702
Substance: YTALNHSGFHTFRDND

P3_MyD88 Rank (after) (MyD88^TIR; [9]): 705
P3_MyD88 Rank (before) (MyD88^TIR; [10]): 1627
Substance: YTALNNMGFHTFRGND

Rank (after) (MyD88^TIR; [3]): 188
Rank (before) (MyD88^TIR; [4]): 1704
Substance: YTALNNSGFNTFRDND

P3_MyD88 Rank (after) (MyD88^TIR; [7]): 257
P3_MyD88 Rank (before) (MyD88^TIR; [8]): 1636
Substance: YTALPNSGFHTFRDNN

P3_MyD88 Rank (after) (MyD88^TIR; [11]): 552
P3_MyD88 Rank (before) (MyD88^TIR; [12]): 1712
Substance: YTALPNSGFHTIRDNE

P3_MyD88 Rank (after) (MyD88^TIR; [11]): 504
P3_MyD88 Rank (before) (MyD88^TIR; [12]): 1638
Substance: YTALSYRGFHDFRGNE

Population (MyD88^TIR; P3_MyD88 pool: P3 T-Surf phage library, 4th round of selection against MyD88 TIR, share of NGS reads): 0.00378%
Substance: YTALTAAANLSGW

P3_MyD88 Rank (after) (MyD88^TIR; [11]): 574
P3_MyD88 Rank (before) (MyD88^TIR; [12]): 1647
Substance: YTALTIAAFIPFVIM

P3_MyD88 Rank (after) (MyD88^TIR; [7]): 208
P3_MyD88 Rank (before) (MyD88^TIR; [8]): 1649
Substance: YTALTNCGFHTFRDNV

Rank (after) (MyD88^TIR; [3]): 178
Rank (before) (MyD88^TIR; [4]): 1654
Substance: YTALTNICFHTFRDND

P3_MyD88 Rank (after) (MyD88^TIR; [7]): 223
P3_MyD88 Rank (before) (MyD88^TIR; [8]): 1655
Substance: YTALTNIGIHTFRDND

P3_MyD88 Rank (after) (MyD88^TIR; [9]): 677
P3_MyD88 Rank (before) (MyD88^TIR; [10]): 1653
Substance: YTALTNMSFHTFRDNY

P3_MyD88 Rank (after) (MyD88^TIR; [5]): 590
P3_MyD88 Rank (before) (MyD88^TIR; [6]): 1658
Substance: YTALTNRAFIPFVIM

Rank (after) (MyD88^TIR; [3]): 479
Rank (before) (MyD88^TIR; [4]): 1631
Substance: YTALTNRGFHTFLDND

P3_MyD88 Rank (after) (MyD88^TIR; [9]): 687
P3_MyD88 Rank (before) (MyD88^TIR; [10]): 1651
Substance: YTALTNRGFHTFRDHH

Rank (after) (MyD88^TIR; [3]): 180
Rank (before) (MyD88^TIR; [4]): 1650
Substance: YTALTNRGFLTFRDNA

P3_MyD88 Rank (after) (MyD88^TIR; [9]): 689
P3_MyD88 Rank (before) (MyD88^TIR; [10]): 1657
Substance: YTALTNSGCHTFRVND

Rank (after) (MyD88^TIR; [3]): 444
Rank (before) (MyD88^TIR; [4]): 1694
Substance: YTALTNSGCPTFCVIA
